Laboratory results published in patent publication US11464763B2, “Parasiticidal compositions comprising an isoxazoline active agent, methods and uses thereof” (BOEHRINGER INGELHEIM ANIMAL HEALTH USA INC., priority 2011, dated 2022).

Columns and labels:
Assay type in all cases: in vivo
Haematobia irritans = assay: Pour-on efficacy against Haematobia irritans (horn fly) in cattle (Example 14); details: for % Reduction: Group 2: pour-on 10% in DES, 1 ml/10 kg
Procedure: The efficacy of a pour-on formulation of the invention comprising isoxazoline Compound A was tested and compared with an untreated control. Two healthy, female Angus crossbread cattle of one year of age weighing between 224 to 330 kg were used in each study group. Cattle in Group 1 were untreated (control) and cattle in Group 2 were treated with a pour-on formulation comprising Compound A at a concentration of 10% (w/v) in DES at a dose of 1 ml/10 kg once on Day 0. The formulation was applied by measuring the required amount of the solution into a marked disposable syringe and applying the material evenly along the mid-line of the back of each animal from the withers to the tail head. Each animal was infested with approximately 200 horn flies released into each of the animal rooms on Day 1, approximately 24 hours post treatment. Approximately 200 horn flies were released again on Days 7, 14, 21, 28 and 36. Horn fly counts were performed at 5 hours and 24 hours after each infestation. Tables 14A and 14B below show the efficacy of the pour-on formulation of the invention.

Ctenocephalides felis = assay: Spot-on efficacy at 1 mg/kg against Ctenocephalides felis fleas in cats protected from grooming (Example 8); details: cats with protective neck collar
Procedure: In another study, the efficacy of four spot-on formulations comprising Cmpd. A dosed at 1 mg/kg body weight in different carrier vehicles against fleas in cats was studied. Five cats each were allocated to five Treatment Groups: Group 1—Untreated; Group 2—0.833% (w/v) Cmpd. A in dimethylsulfoxide (DMSO); Group 3—0.833% (w/v) Cmpd. A in DMI; Group 4—0.833% (w/v) Cmpd. A in Transcutol®; and Group 5—0.833% (w/v) Cmpd. A in DES. […] the corresponding spot-on formulation by application of the formulation directly on the skin in the midline of the neck, between the base of the skull and the shoulder blades in a single spot using a 1 mL syringe. Infestations with approximately 100 C. felis were conducted weekly on Days 7, 14, 21, 28 and 35. […]

Rhipicephalus sanguineus = assay: Spot-on efficacy against Rhipicephalus sanguineus ticks on dogs, 40% DES/DMI (Example 5); details: 4.0 mg/kg
Procedure: The efficacy of a formulation comprising an isoxazoline compound (Cmpd. A) in a carrier comprising 40% DES/DMI against Ctenocephalides felis fleas and Rhipicephalus sanguineus ticks in Dogs was studied. […] Three treatment groups containing three dogs each were evaluated. All dogs were treated once topically on Day 0 by parting the hair and applying the solution from a syringe directly onto the skin in a single spot on the midline of the neck between the base of the skull and the shoulder blades.
Treatment Group 1 was a placebo control and received 0.067 mL/kg of body weight. Treatment Group 2 was administered a topical spot-on formulation comprising 6.0% (w/v) Cmpd. A in 40% DES/DMI to deliver a dose of 4.0 mg/kg body weight. Treatment Group 3 was administered a topical spot-on formulation comprising 12% (w/v) Cmpd. A in 40% DES/DMI to deliver a dose of 4.0 mg/kg body weight.

[1] = system: Sarcoptes scabiei var. bovis; assay: Pour-on efficacy against Sarcoptes scabiei var. bovis (mange mites) in cattle (Example 17); details: for % Reduction: live mite counts in scrapings
Procedure: The efficacy of two pour-on formulations of the invention comprising isoxazoline Compound A at doses of 2.5 mg/kg and 10 mg/kg were tested against natural and induced infestations with Sarcoptes scabiei var. bovis (mange mites) in cattle compared with an untreated control. Four healthy head of cattle weighing between 100 to 300 kg were used in each study group. Cattle in Group 1 were untreated (control). Cattle in Group 2 were treated on Day 0 with a pour-on formulation comprising Compound A at a concentration of 2.5% (w/v) in DES at a dose of 2.5 mg/kg; and cattle in Group 3 were treated on Day 0 with a pour-on formulation comprising Compound A at a concentration of 10% (w/v) in DES at a dose of 10 mg/kg. The formulation was applied by measuring the required amount of the solution into a marked disposable syringe and applying the material evenly along the mid-line of the back of each animal from the withers to the tail head.
Live (motile) Sarcoptes scabiei var. bovis (mange mites) were counted on days 7, 14, 20, 27, 34, 41, 48 and 55 in scrapings collected from the edges of active lesions or, if lesions regressed during the study, from the area where active lesions were at the commencement of the study. Scrapings were made from six sites with an area of at least 3 cm×3 cm in size on each animal. Tables 18A and 18B below show the efficacy of the two pour-on formulations against Sarcoptes scabiei var. bovis over 56 days. […] The long lasting efficacy of the pour-on formulations of the invention against Sarcoptes scabiei var. bovis from one topical treatment is unexpected and surprising.

Structure (SMILES): O=C(CNC(=O)c1ccc(C2=NOC(c3cc(Cl)cc(C(F)(F)F)c3)(C(F)(F)F)C2)c2ccccc12)NCC(F)(F)F (stereo not drawn) [Compound A, 4-[5-[3-chloro-5-(trifluoromethyl)phenyl]-4,5-dihydro-5-(trifluoromethyl)-3-isoxazolyl]-N-[2-oxo-2-[(2,2,2-trifluoroethyl)amino]ethyl]-1-naphthalanecarboxamide]
- Efficacy against horn flies (Haematobia irritans; 24 hours after infestation through the end of the study (day 36)): at least 90%
- % Reduction (Haematobia irritans; Day 1 (5 h)): 81.2%
- % Reduction (Haematobia irritans; Day 2 (24 h)): 99.6%
- % Reduction (Haematobia irritans; Day 7 (5 h)): 84.2%
- % Reduction (Haematobia irritans; Day 8 (24 h)): 99.7%
- % Reduction (Haematobia irritans; Day 14 (5 h)): 89.5%
- % Reduction (Haematobia irritans; Day 15 (24 h)): 99.2%
- % Reduction (Haematobia irritans; Day 21 (5 h)): 67.6%
- % Reduction (Haematobia irritans; Day 22 (24 h)): 97.4%
- % Reduction (Haematobia irritans; Day 28 (5 h)): 11.7%
- % Reduction (Haematobia irritans; Day 29 (24 h)): 90.4%
- % Reduction (Ctenocephalides felis; Group 2: 0.833% in DMSO, Day 1): 43.16%
- % Reduction (Ctenocephalides felis; Group 2: 0.833% in DMSO, Day 2): 60.54%
- % Reduction (Ctenocephalides felis; Group 2: 0.833% in DMSO, Day 8): 98.48%
- % Reduction (Ctenocephalides felis; Group 2: 0.833% in DMSO, Day 15): 95.91%
- % Reduction (Ctenocephalides felis; Group 2: 0.833% in DMSO, Day 22): 97.90%
- % Reduction (Ctenocephalides felis; Group 2: 0.833% in DMSO, Day 29): 90.10%
- % Reduction (Ctenocephalides felis; Group 2: 0.833% in DMSO, Day 36): 74.49%
- % Reduction (Ctenocephalides felis; Group 3: 0.833% in DMI, Day 1): 37.90%
- % Reduction (Ctenocephalides felis; Group 3: 0.833% in DMI, Day 2): 88.97%
- % Reduction (Ctenocephalides felis; Group 3: 0.833% in DMI, Day 8): 99.62%
- % Reduction (Ctenocephalides felis; Group 3: 0.833% in DMI, Day 15): 99.32%
- % Reduction (Ctenocephalides felis; Group 3: 0.833% in DMI, Day 22): 98.80%
- % Reduction (Ctenocephalides felis; Group 3: 0.833% in DMI, Day 29): 92.66%
- % Reduction (Ctenocephalides felis; Group 3: 0.833% in DMI, Day 36): 79.54%
- % Reduction (Ctenocephalides felis; Group 4: 0.833% in Transcutol, Day 1): 76.32%
- % Reduction (Ctenocephalides felis; Group 4: 0.833% in Transcutol, Day 2): 83.12%
- % Reduction (Ctenocephalides felis; Group 4: 0.833% in Transcutol, Day 8): 98.95%
- % Reduction (Ctenocephalides felis; Group 4: 0.833% in Transcutol, Day 15): 99.01%
- % Reduction (Ctenocephalides felis; Group 4: 0.833% in Transcutol, Day 22): 96.19%
- % Reduction (Ctenocephalides felis; Group 4: 0.833% in Transcutol, Day 29): 95.41%
- % Reduction (Ctenocephalides felis; Group 4: 0.833% in Transcutol, Day 36): 86.61%
- % Reduction (Ctenocephalides felis; Group 5: 0.833% in DES, Day 1): 54.40%
- % Reduction (Ctenocephalides felis; Group 5: 0.833% in DES, Day 2): 82.77%
- % Reduction (Ctenocephalides felis; Group 5: 0.833% in DES, Day 8): 98.82%
- % Reduction (Ctenocephalides felis; Group 5: 0.833% in DES, Day 15): 99.26%
- % Reduction (Ctenocephalides felis; Group 5: 0.833% in DES, Day 22): 99.82%
- % Reduction (Ctenocephalides felis; Group 5: 0.833% in DES, Day 29): 92.43%
- % Reduction (Ctenocephalides felis; Group 5: 0.833% in DES, Day 36): 88.11%
- % Reduction (Rhipicephalus sanguineus; Group 2: 6.0% in 40% DES/DMI, Day 2): 100.0%
- % Reduction (Rhipicephalus sanguineus; Group 2: 6.0% in 40% DES/DMI, Day 30): 91.5%
- % Reduction (Rhipicephalus sanguineus; Group 2: 6.0% in 40% DES/DMI, Day 31): 100.0%
- % Reduction (Rhipicephalus sanguineus; Group 2: 6.0% in 40% DES/DMI, Day 38): 85.2%
- % Reduction (Rhipicephalus sanguineus; Group 3: 12% in 40% DES/DMI, Day 2): 100.0%
- % Reduction (Rhipicephalus sanguineus; Group 3: 12% in 40% DES/DMI, Day 30): 72.6%
- % Reduction (Rhipicephalus sanguineus; Group 3: 12% in 40% DES/DMI, Day 31): 100.0%
- % Reduction (Rhipicephalus sanguineus; Group 3: 12% in 40% DES/DMI, Day 38): 51.3%
- efficacy against Sarcoptes scabiei var. bovis ([1]; 10% (w/v) formulation, day 14 through day 55): 100%
- efficacy against Sarcoptes scabiei var. bovis ([1]; both pour-on formulations, starting on day 7 through at least day 56): higher than 95%
- % Reduction ([1]; Group 2: pour-on 2.5% (w/v) in DES, 2.5 mg/kg, Day 7): 96.7%
- % Reduction ([1]; Group 2: pour-on 2.5% (w/v) in DES, 2.5 mg/kg, Day 14): 98.2%
- % Reduction ([1]; Group 2: pour-on 2.5% (w/v) in DES, 2.5 mg/kg, Day 20): 99.6%
- % Reduction ([1]; Group 2: pour-on 2.5% (w/v) in DES, 2.5 mg/kg, Day 27): 100%
- % Reduction ([1]; Group 2: pour-on 2.5% (w/v) in DES, 2.5 mg/kg, Day 34): 100%
- % Reduction ([1]; Group 2: pour-on 2.5% (w/v) in DES, 2.5 mg/kg, Day 41): 100%
- % Reduction ([1]; Group 2: pour-on 2.5% (w/v) in DES, 2.5 mg/kg, Day 48): 100%
- % Reduction ([1]; Group 2: pour-on 2.5% (w/v) in DES, 2.5 mg/kg, Day 55): 100%
- % Reduction ([1]; second line of the table, "Group 2", pour-on in DES, Day 7): 96.8%
- % Reduction ([1]; second line of the table, "Group 2", pour-on in DES, Day 14): 100%
- % Reduction ([1]; second line of the table, "Group 2", pour-on in DES, Day 20): 100%
- % Reduction ([1]; second line of the table, "Group 2", pour-on in DES, Day 27): 100%
- % Reduction ([1]; second line of the table, "Group 2", pour-on in DES, Day 34): 100%
- % Reduction ([1]; second line of the table, "Group 2", pour-on in DES, Day 41): 100%
- % Reduction ([1]; second line of the table, "Group 2", pour-on in DES, Day 48): 100%
- % Reduction ([1]; second line of the table, "Group 2", pour-on in DES, Day 55): 100%
- efficacy against Sarcoptes scabiei var. bovis ([1]; lower concentration pour-on formulation (Group 2), day 27 through the end of the study): 100%
